Assay results reported in US20260265832A1, “ADAR1 INHIBITORS FOR TREATING CANCER” (INSTITUE OF CANCER RESEARCH ROYAL CANCER HOSPITAL, priority 2023, published 2026).

Columns and labels:
[1] = test system: Brca1-mutant (Δ11) MEFs; assay: Clonogenic survival and dose-response survival with 8-azaadenosine; type: cell-based, mouse; conditions: MEF Brca1-Δ11 vs Brca1-wildtype; 8 days clonogenic, 7 days dose-response
Text: (§1) FIG. 7. A. Clonogenic survival of Brca1-wildtype and Brca1-mutant (Δ11) MEFs exposed to 8-azaadenosine for 8 days. B. Dose-response survival curves of Brca1-wildtype and Brca1-mutant (Δ11) MEFs exposed to increasing concentrations of 8-azaadenosine for 7 days. C. Clonogenic survival of BRCA2-wildtype and BRCA2-knockout DLD1 cells exposed to 8-azaadenosine for 8 days. D. Dose-response survival curves of BRCA2-wildtype and BRCA2-knockout DLD1 cells exposed to increasing concentrations of 8-azaadenosine for 7 days. All graphs show median. Error bars represent Standard Deviation (SD).

[2] = test system: BRCA2-knockout DLD1 cells; assay: as above; type: cell-based; conditions: DLD1 BRCA2-KO vs BRCA2-wildtype; 8 days clonogenic, 7 days dose-response
Text: as §1

Nc1ncnc2c1nnn2[C@@H]1O[C@H](CO)[C@@H](O)[C@H]1O [8-azaadenosine, 3-(β-D-Ribofuranosyl)-3H-[1,2,3]triazolo[4,5-d]pyrimidin-7-amine]
BRCA1 synthetic lethality (clonogenic survival, dose-response survival) [1]: elicited BRCA1 synthetic lethality
BRCA2 synthetic lethality (clonogenic survival, dose-response survival) [2]: BRCA2 synthetic lethality
